Tests used:
A549 cells = test: A549 cell proliferation, MTT assay; format: cell-based, human; settings: for % inhibition: 10^−7 M, 72 hours at 37° C., mean ± SEM, 3 to 7 experiments
Method: A microculture 3,(4,5-dimethylthiazoyl-2-yl) 2,5 (diphenyl-tetrazolium bromide) (MTT) assay, (Marshall, N. J., et al. (1995) A critical assessment of the use of microculture tetrazolium assays to measure cell growth and function. Growth Regul. 5: 69-84.), was used to examine the actions of LXs and other eicosanoids on cell proliferation. A549 cells and fibroblasts from exponential-phase maintenance cultures were counted and dispensed within replicate 96-well culture plates in 100 μl volumes of medium (˜2000 cells/well). Following 24 hours at 37° C., the culture medium was removed, and fresh medium (100 μl) containing either the compounds (5-1000 nM) or vehicle (medium plus 0.15% ethanol) was added to 4 replicates for each condition studied and the culture plates were then incubated for up to 96 hours at 37° C. in a 5% CO2 atmosphere. At the end of this period, 25 μl of freshly prepared MTT in HBSS (5 mg/ml) was added to the wells and the plates were incubated for 4 hours at 37° C. Dye solution was aspirated, wells were washed once with HBSS and dye taken up by the cells was extracted in 100 μl of isopropyl alcohol:1 N HCl (96:4, v/v) and quantitated at 570 nm using a microplate reader (Molecular Devices, Menlo Park, Calif.). In some experiments, cells were grown in 12-well culture plates, treated as above and enumerated using a Neubauer hemocytometer. Viability was assessed routinely using trypan blue exclusion assay. For the A549 cells and fibroblasts, a linear relation was established for the MTT values and cell number within the range of the experiments shown (r=0.995, P<0.005). A549 cells grown for 72 hours in the presence of the compounds (5-1000 nM) or vehicle (0.15% EtOH) were lysed with 0.25 N NaOH and the cellular protein content was determined by applying the Bio-Rad (Richmond, Calif.) microassay method using bovine serum albumin as standard. The mean cellular protein content in resting A549 cells was 46.6±1.5 pg/cell.

[1] = target: T1, LXA4 specific binding sites of differentiated HL-60 cells (Homo sapiens, UniProt P25090); test: 3H-LXA4 specific binding to differentiated HL-60 cells; settings: for displacement of 3H-LXA4 specific binding: competition, competitor 300 nM where printed
T1 construct: endogenous in cells; host or cells: HL-60 cells differentiated with DMSO, retinoic acid or PMA; intact cells
T1 sequence (P25090 1-351): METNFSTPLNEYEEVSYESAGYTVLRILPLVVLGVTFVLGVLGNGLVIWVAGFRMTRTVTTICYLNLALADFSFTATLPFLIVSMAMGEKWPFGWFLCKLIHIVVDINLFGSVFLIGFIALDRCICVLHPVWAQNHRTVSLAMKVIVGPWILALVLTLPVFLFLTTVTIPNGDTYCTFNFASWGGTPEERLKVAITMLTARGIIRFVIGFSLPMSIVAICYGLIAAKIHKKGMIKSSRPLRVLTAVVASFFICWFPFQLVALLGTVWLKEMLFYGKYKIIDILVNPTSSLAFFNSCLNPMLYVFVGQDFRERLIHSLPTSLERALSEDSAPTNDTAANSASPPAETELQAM
Method: Preparation of [11,12-^3H]LXA4. Tritiation of 11,12-acetylenic LXA4 methyl ester was carried out under a custom tritiation service (NET-259:92-2326) by New England Nuclear (Boston, Mass.). Briefly, 11,12-acetylene methyl ester was characterized by UV absorbance and reverse-phase HPLC as in (Nicolaou, K. C. et al. (1985) J. Am. Chem. Soc. 107:7515) and exposed to tritium atmosphere in methylene chloride at room temperature. This incubation was stirred in the presence of Lindlar catalyst (1.0 mg from Fluka Chemicals) for˜1 h. The resulting mixture was stored in methanol and isolated using RP-HPLC. Tritiated products were chromatographed as methyl esters utilizing a gradient HPLC system equipped with a photodiode array rapid spectral detector (Serhan, C. N., Methods in Enzymology: Arachidonate Related Lipid Mediators, in Murphy R. C., Fitzpatrick, F. (eds.), vol. 187. Orlando, Fla., Academic, (1990), p. 167). This mixture contained both [11,12-^3H]LXA4 and [11,12-^3H]-11-trans-LXA4 methyl esters (˜1:3 ratio) as determined by coelution with synthetic standards. After RP-HPLC, fractions containing [11,12-^3H]LXA4 were collected, and extracted into ethyl acetate. The free acid was prepared by LiOH saponification (Fiore, S. et al. (1992) J. Biol. Chem. 267:16168). Material from these fractions, when injected into UV-electrochemical detection HPLC, gave greater than 90% of radioactivity associated with a tetraene-containing product that coeluted with synthetic LXA4. Materials that eluted with the retention time of authentic LXA4 in two HPLC systems were taken for binding experiments. The specific activity calculated for [11,12-^3H]LXA4 was 40.5 Ci/mmole.
Cell cultures and differentiation. HL-60 cells were seeded in RPMI medium supplemented with 100 U/ml penicillin, 100 μg/ml streptomycin, and 10% fetal calf serum (Hyclone, Logan, Utah), incubated at 37° C. with 5% CO2 atmosphere in 250 ml flasks. Individual flasks containing ˜[…] next received dimethyl sulfoxide (DMSO) (1.12% v/v, 120 h) or retinoic acid (RA) (1 μM, 120 h) or phorbol myristate acetate (PMA) (20 nM, 48 h). Before performing binding assays, cells were washed twice in phosphate buffered saline (PBS), Ca^2+- and Mg^2+-free, enumerated and suspended at 20×10^6 cells/ml in Tris buffer (10 mM), pH 7.4 (Fiore, S. et al.(1992) J. Biol. Chem. 267:16168). Nitro blue tetrazolium reduction was performed to monitor induction of polymorphonuclear phenotype as in (Imaizumi, M. and Breitman, T. R. (1986) Blood 67:1273), and cell adherence was determined for induction of macrophage-like phenotype (Collins, S. J. (1987) Blood 70:1273). Human umbilical vein endothelial cells (HUVEC) maintained in culture third passage were obtained from Dr. M. Gimbrone (Brigham and Women's Hospital Department of Pathology).
Ligand binding. ^3H-LXA4 and ^3H-LTB4 binding was performed essentially as in Fiore, S. et al.(1992) J. Biol. Chem. 267:16168. After suspending cells in Tris buffer 10 mM (pH 7.4, Ca^2+ 2.5 mM, Mg^2+ 1.2 mM), aliquots (0.5 ml) were incubated (20 min at 4° C.) with ^3H- ligands alone (0.3 nM) or in the presence of increasing concentrations of homoligands or other compounds (3-300 nM). The incubations were rapidly centrifuged (60 sec, 12,000 g) on silicon oil (d=1.028), and cell-associated radioactivity was determined by liquid scintillation counting (Wallac 1409, Pharmacia, Piscataway, N.J.). Binding experiments with HUVEC cells were performed in 12 well plates with 3.5×10^5 cells/well. After 10 min, wells were washed twice with PBS and cell-associated label was recovered by adding glacial acetic acid (0.5 ml). Results obtained from these assays were submitted for further analysis using the Ligand program (Elsevier-Biosoft, Cambridge, UK).

PMA-treated HL-60 cells = test: Lipoxin metabolism / bio-half-life assay with phorbol ester-treated HL-60 cells; format: in vitro ADME, human; settings: at times up to two hours
Method: HL-60 cells were purchased from American Type Culture Collection (Rockville, Md.), and other cell culture reagents were from GIBCO (Grand Island, N.Y.). Versene (EDTA) was from Whittaker Bioproducts (Walkersville, Md.). Synthetic 11,12-acetylenic LXA4 methyl ester and LXs were from Cascade Biochemical (Reading, U.K.). 15(S)-15-m-PGE1, PGE1, and 5-HETE were from Cayman Chemical Co. (Ann Arbor, Mich.). [11,12-^3H]LXA4 was prepared from 11,12-acetylenic LXA4 using Lindlar catalyst as a custom tritiation (NET-259, lot 0 2793-275, New England Nuclear, Boston, Mass.). Tritiated products were isolated using RP-HPLC (Fiore et al. (1992) J. Biol. Chem. 267:16168; Serhan, C. N. (1990) Meth. Enzymol. 187:167). Methoxyamine and NAD were from Sigma Chemical Company (St. Louis, Mo.). Manganese dioxide and Adams reagent were from Aldrich Chemical Co. (Milwaukee, Wis.).
Human PMN were obtained from healthy volunteers by gradient centrifugation of heparinized fresh venous blood (Böyum, A. ([…]) Scand. J. Clin. Lab. Invest. 21:77). HL-60 cells were seeded in RPMI supplemented with penicillin (100 U/ml), streptomycin (100 μ/ml), fetal bovine serum (10%) (Hyclone, Logan, Utah) and incubated (37° C. with 5% CO2 atmosphere) in plastic 250 ml flasks. Individual flasks containing […] HL-60 cells/ml were incubated in the presence or absence of phorbol 12-myristate 13-acetate (PMA) (10 or 16 nM, 24-27 h) and adherence was monitored for induction of macrophage-like phenotype as in Collins, S. J. (1987) Blood 70:1233. […]
Incubations with eicosanoids were stopped with cold methanol containing either PGB2 or 5-HETE as internal standards (5-HETE was used when 15-oxo-ETE was quantified). […] Formation of 15-oxo-ETE by 100,000 g supernatants (cf. Agins, A. P. et al. (1987) Agents Actions 21:397; Xun, C-Q. et al.(1991) Biochem. J. 279:553; and Sok, D-E. et al. (1988) Biochem. Biophys. Res. Commun. 156:524) was quantified after RP-HPLC using an ODS column (4.6 mm×25 cm) eluted with methanol/H2O/acetic acid (70:30:0.01, v/v/v) monitored at 280 nm with a flow rate of 1 ml/min. […] On-line spectra were recorded using a diode array detector (Hewlett-Packard 1040M series II) equipped with HPLC^3D ChemStation software (DOS series). […]
The “bio-half-life” of compounds 1-8 was assessed using phorbol ester-treated human promyelocytic leukemia (HL-60) cells as described in Example 2. […]

Compound	% inhibition (A549 cells)	displacement of 3H-LXA4 specific binding [1]	other results
CCCCC[C@@H](O)/C=C/C=C\C=C\C=C\C(O)C(O)CCCC(=O)O (stereo in doubt) [15-epi-LXA4, 15R-5,6,15-trihydroxy-7,9,13-trans-11-cis-eicosatetraenoic acid]	20.1 ± 1.9%		inhibition of A549 cell growth compared with LXA4 (A549 cells; equimolar levels (100 nM)): to a similar extent as LXA4
CCCCC[C@@H](O)C(O)/C=C/C=C/C=C\C=C\C(O)CCCC(=O)O (stereo in doubt) [15-epi-LXB4, 15R-5,14,15-trihydroxy-6,10,12-trans-8-cis-eicosatetraenoic acid]	79.3 ± 0.3%		inhibition proliferation (A549 cells; equimolar levels (100 nM), Table 1): ~80%
CCCCC/C=C\C\C=C/C=C/C=C/[C@@H](SC[C@H](NC(=O)CC[C@H](N)C(=O)O)C(=O)NCC(=O)O)[C@@H](O)CCCC(=O)O [LTC4]			decrease of 3H-LXA4 specific binding ([1]; added in 3 log molar excess): ~30%
COc1ccc(/C=C/CCCCOc2cccc(OCCCCC(=O)O)c2CCC(=O)O)cc1 [ONO-4057]		did not displace	
cyclohexyl-LXA4 [compound 4]			recovery in the incubation medium (bio-half-life) (PMA-treated HL-60 cells): quantitatively recovered
trihydroxyheptanoic acid (methyl ester)		Neither LXB4, LTB4, nor trihydroxyheptanoic acid (methyl ester) (300 nM) were able to displace	
